# Assay results from ChEMBL document CHEMBL4049425, “Fragment-Based, Structure-Enabled Discovery of Novel Pyridones and Pyridone Macrocycles as Potent Bromodomain and Extra-Terminal Domain (BET) Family Bromodomain Inhibitors” (J Med Chem, 2017).
# Tested on: Liver
# Test: Unbound intrinsic clearance in human liver microsomes
# Format: ADME, microsome
# Conditions: not given
row,Compound,CL free
1,CCOc1cc(=O)n(C)cc1-c1cc(NS(=O)(=O)CC)ccc1Oc1ccc(F)cc1F,< 71.7 mL/min/kg
2,CCS(=O)(=O)Nc1ccc(Oc2ccc(F)cc2F)c(-c2cn(C)c(=O)cc2OC2COC2)c1,76.7 mL/min/kg
3,CCS(=O)(=O)Nc1cnc2c(c1)-c1cn(C)c(=O)cc1OCCCCc1cc(F)cc(F)c1O2,< 28.3 mL/min/kg
4,CCOc1cc(=O)n(C)cc1-c1cc(S(=O)(=O)CC)ccc1Oc1ccc(F)cc1F,< 33 mL/min/kg

# Tested on: Liver
# Test: Unbound intrinsic clearance in rat liver microsomes
# Format: ADME, microsome
# Conditions: not given
row,Compound,CL free
1,CCOc1cc(=O)n(C)cc1-c1cc(NS(=O)(=O)CC)ccc1Oc1ccc(F)cc1F,60 mL/min/kg
2,CCS(=O)(=O)Nc1ccc(Oc2ccc(F)cc2F)c(-c2cn(C)c(=O)cc2OC2COC2)c1,< 41.7 mL/min/kg
3,CCS(=O)(=O)Nc1cnc2c(c1)-c1cn(C)c(=O)cc1OCCCCc1cc(F)cc(F)c1O2,75 mL/min/kg
4,CCOc1cc(=O)n(C)cc1-c1cc(S(=O)(=O)CC)ccc1Oc1ccc(F)cc1F,103 mL/min/kg

# Target: T1, Bromodomain-containing protein 4 (Homo sapiens, UniProt O60885)
# Test: Inhibition of human N-terminal His6-tagged BRD4 BD1-BD2 (57 to 550 residues) expressed in EScherichia coli BL21(DE3) after 1 hr by Alexa-647-conjugated probe based TR-FRET assay
# Conditions: not given
row,Compound,Ki
1,CCS(=O)(=O)Nc1ccc(Oc2ccc(F)cc2F)c(-c2cn(C)c(=O)cc2OC2COC2)c1,9 nM
2,CCS(=O)(=O)Nc1cnc2c(c1)-c1cn(C)c(=O)cc1OCCCCc1cc(F)cc(F)c1O2,0.8 nM

# Tested on: not listed separately
# Test: Lipophilicity, log D of the compound
# Format: physicochemical
# Conditions: octanol/water
row,Compound,logD
1,CCOc1cc(=O)n(C)cc1-c1cc(NS(=O)(=O)CC)ccc1Oc1ccc(F)cc1F,2.8 to 4.3
2,CCS(=O)(=O)Nc1ccc(Oc2ccc(F)cc2F)c(-c2cn(C)c(=O)cc2OC2COC2)c1,2.8 to 4.3
3,CCS(=O)(=O)Nc1cnc2c(c1)-c1cn(C)c(=O)cc1OCCCCc1cc(F)cc(F)c1O2,2.8 to 4.3
4,CCOc1cc(=O)n(C)cc1-c1cc(S(=O)(=O)CC)ccc1Oc1ccc(F)cc1F,2.8 to 4.3

# Tested on: Mus musculus
# Test: Unbound AUC in mouse at 1 mg/kg, po
# Format: ADME, organism-based
# Conditions: in vivo
row,Compound,fAUC
1,CCS(=O)(=O)Nc1cnc2c(c1)-c1cn(C)c(=O)cc1OCCCCc1cc(F)cc(F)c1O2,15 ng·h/mL

# Tested on: not listed separately
# Test: Oral bioavailability in mouse at 10 mg/kg
# Format: ADME, organism-based
# Conditions: in vivo
row,Compound,bioavailability
1,CCOc1cc(=O)n(C)cc1-c1cc(NS(=O)(=O)CC)ccc1Oc1ccc(F)cc1F,56%
2,CCS(=O)(=O)Nc1ccc(Oc2ccc(F)cc2F)c(-c2cn(C)c(=O)cc2OC2COC2)c1,20%
3,CCOc1cc(=O)n(C)cc1-c1cc(S(=O)(=O)CC)ccc1Oc1ccc(F)cc1F,41%

# Tested on: not listed separately
# Test: Oral bioavailability in mouse at 1 mg/kg
# Format: ADME, organism-based
# Conditions: in vivo
row,Compound,bioavailability
1,CCS(=O)(=O)Nc1cnc2c(c1)-c1cn(C)c(=O)cc1OCCCCc1cc(F)cc(F)c1O2,27%

# Tested on: Mus musculus
# Test: Fraction absorbed in portal vein of mouse at 1 mg/kg, iv or 1 mg/kg, po
# Format: ADME, organism-based
# Conditions: in vivo
row,Compound,FaFg
1,CCS(=O)(=O)Nc1cnc2c(c1)-c1cn(C)c(=O)cc1OCCCCc1cc(F)cc(F)c1O2,0.49

# Target: T1, Bromodomain-containing protein 4
# Test: Inhibition of BRD4 in human NCI-H1299 cells after 24 hrs by Bright-Glo luciferase reporter gene assay
# Format: cell-based
# Conditions: not given
row,Compound,EC50
1,CCS(=O)(=O)Nc1ccc(Oc2ccc(F)cc2F)c(-c2cn(C)c(=O)cc2OC2COC2)c1,48 nM
2,CCS(=O)(=O)Nc1cnc2c(c1)-c1cn(C)c(=O)cc1OCCCCc1cc(F)cc(F)c1O2,6.4 nM
3,CCOc1cc(=O)n(C)cc1-c1cc(S(=O)(=O)CC)ccc1Oc1ccc(F)cc1F,66 nM

# Tested on: Mus musculus
# Test: Dose normalized fAUC in mouse at 3 mg/kg, iv or 10 mg/kg, po
# Format: ADME, organism-based
# Conditions: in vivo
row,Compound,fAUC/dose
1,CCS(=O)(=O)Nc1ccc(Oc2ccc(F)cc2F)c(-c2cn(C)c(=O)cc2OC2COC2)c1,0.026 µg·h/mL per mg/kg
2,CCOc1cc(=O)n(C)cc1-c1cc(S(=O)(=O)CC)ccc1Oc1ccc(F)cc1F,0.039 µg·h/mL per mg/kg

# Tested on: Mus musculus
# Test: Unbound clearance in mouse at 1 mg/kg, iv or 1 mg/kg, po
# Format: ADME, organism-based
# Conditions: in vivo
row,Compound,CL free
1,CCS(=O)(=O)Nc1cnc2c(c1)-c1cn(C)c(=O)cc1OCCCCc1cc(F)cc(F)c1O2,317 mL/min/kg

# Tested on: Liver
# Test: Unbound intrinsic clearance in mouse liver microsomes
# Format: ADME, microsome
# Conditions: not given
row,Compound,CL free
1,CCOc1cc(=O)n(C)cc1-c1cc(NS(=O)(=O)CC)ccc1Oc1ccc(F)cc1F,< 100 mL/min/kg
2,CCS(=O)(=O)Nc1ccc(Oc2ccc(F)cc2F)c(-c2cn(C)c(=O)cc2OC2COC2)c1,150 mL/min/kg
3,CCS(=O)(=O)Nc1cnc2c(c1)-c1cn(C)c(=O)cc1OCCCCc1cc(F)cc(F)c1O2,250 mL/min/kg
4,CCOc1cc(=O)n(C)cc1-c1cc(S(=O)(=O)CC)ccc1Oc1ccc(F)cc1F,200 mL/min/kg

# Tested on: Mus musculus
# Test: Unbound plasma clearance in mouse at 3 mg/kg, iv or 10 mg/kg, po
# Format: ADME, organism-based
# Conditions: in vivo
row,Compound,CL free
1,CCOc1cc(=O)n(C)cc1-c1cc(NS(=O)(=O)CC)ccc1Oc1ccc(F)cc1F,267 mL/min/kg
2,CCS(=O)(=O)Nc1ccc(Oc2ccc(F)cc2F)c(-c2cn(C)c(=O)cc2OC2COC2)c1,143 mL/min/kg
3,CCOc1cc(=O)n(C)cc1-c1cc(S(=O)(=O)CC)ccc1Oc1ccc(F)cc1F,167 mL/min/kg

# Tested on: MX1
# Test: Antiproliferative activity against human MX1 cells after 72 hrs by Cell Titer Glo assay
# Format: functional, cell-based
# Conditions: MX1, 72 h
row,Compound,EC50
1,CCS(=O)(=O)Nc1ccc(Oc2ccc(F)cc2F)c(-c2cn(C)c(=O)cc2OC2COC2)c1,25 nM
2,CCS(=O)(=O)Nc1cnc2c(c1)-c1cn(C)c(=O)cc1OCCCCc1cc(F)cc(F)c1O2,4.2 nM
3,CCOc1cc(=O)n(C)cc1-c1cc(S(=O)(=O)CC)ccc1Oc1ccc(F)cc1F,40 nM

# Tested on: Mus musculus
# Test: Fraction absorbed in portal vein of mouse at 3 mg/kg, iv or 10 mg/kg, po
# Format: ADME, organism-based
# Conditions: in vivo
row,Compound,FaFg
1,CCOc1cc(=O)n(C)cc1-c1cc(NS(=O)(=O)CC)ccc1Oc1ccc(F)cc1F,0.79
2,CCS(=O)(=O)Nc1ccc(Oc2ccc(F)cc2F)c(-c2cn(C)c(=O)cc2OC2COC2)c1,0.3
3,CCOc1cc(=O)n(C)cc1-c1cc(S(=O)(=O)CC)ccc1Oc1ccc(F)cc1F,0.52

# Tested on: not listed separately
# Test: Fraction unbound in mouse plasma at 1 uM after 4 hrs by LC-MS/MS analysis
# Format: ADME, cell-free
# Conditions: not given
row,Compound,"fraction unbound at 4 h, 1 µM"
1,CCOc1cc(=O)n(C)cc1-c1cc(NS(=O)(=O)CC)ccc1Oc1ccc(F)cc1F,0.1
2,CCS(=O)(=O)Nc1ccc(Oc2ccc(F)cc2F)c(-c2cn(C)c(=O)cc2OC2COC2)c1,0.2
3,CCS(=O)(=O)Nc1cnc2c(c1)-c1cn(C)c(=O)cc1OCCCCc1cc(F)cc(F)c1O2,0.12
4,CCOc1cc(=O)n(C)cc1-c1cc(S(=O)(=O)CC)ccc1Oc1ccc(F)cc1F,0.1

# Tested on: not listed separately
# Test: Permeability of the compound by PAMPA
# Format: physicochemical
# Conditions: read-out: permeability
row,Compound,Papp
1,CCS(=O)(=O)Nc1cnc2c(c1)-c1cn(C)c(=O)cc1OCCCCc1cc(F)cc(F)c1O2,9 ×10⁻⁶ cm/s
